Assays:
WDR5 = target: T1, WDR5 (Homo sapiens, UniProt P61964); experiment: Time Resolved-Fluorescence Energy Transfer (TR-FRET) competition assay, displacement of 10mer-Thr-FAM probe from His-tagged WDR5; type: binding; conditions: WDR5-His tag 2 nM, 10mer-Thr-FAM 150 nM, 60 minutes at room temperature; read-out: Ki for Exemplified Compounds for Inhibition of WDR5 by TR-FRET assay
T1 construct: WDR5-His Tag (A23, residues 24-334) is expressed and purified in our lab; made in house
In short: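 Competitive TR-FRET using 2 nM His-tagged WDR5 (residues 24-334), 1 nM Tb-anti-His antibody and 150 nM 10mer-Thr-FAM probe; compounds in a 10-point, 5-fold series from 5 μM, ≤1% DMSO. Incubated 60 min at room temperature in PBS with 300 mM NaCl, 0.5 mM TCEP, 0.1% CHAPS, pH 7.2; 520/495 nm emission gave IC50, converted to Ki by the Wang equation.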

[1] = system: MV4:11 human cancer cell lines; experiment: Cellular viability / anti-proliferative activity, CellTiter-Glo, 5 day protocol; type: cell-based; conditions: Homo sapiens, MV4-11, 120 h, MV4:11 cells, 5 day incubation, read-out: GI50 for representative compounds on cellular proliferation of MV4:11 human cancer cell lines
In short: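 MV-4-11 cells in IMDM/10% FBS, 200 cells per well, exposed to 22-point 2-fold dilutions from 30 μM top (0.3% DMSO) for 5 days. Viability by CellTiter-Glo luminescence; GI50 from sigmoidal dose-response fit, mean of at least two replicates.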

Row | Compound | Ki (WDR5) [nM] | GI50 [1] [nM]
1 | COc1cc2nc(C3CCOCC3)nc(N3CCc4c(cc(Cn5ccnc5)cc4-c4cn(C)nc4C(F)(F)F)C3=O)c2cc1OC [Example 67, 7-((1H-Imidazol-1-yl)methyl)-2-(6,7-dimethoxy-2-(tetrahydro-2H-pyran-4-yl)quinazolin-4-yl)-5-(1-methyl-3-(trifluoromethyl)-1H-pyrazol-4-yl)-3,4-dihydroisoquinolin-1(2H)-one] | 0.025 | < 20
2 | CCN(C)c1nc(N2CCc3c(cc(Cn4ccnc4)cc3-c3cn(C)nc3C(F)(F)F)C2=O)c2cc(OC)c(OC)cc2n1 [Example 62, 7-((1H-Imidazol-1-yl)methyl)-2-(2-(ethyl(methyl)amino)-6,7-dimethoxyquinazolin-4-yl)-5-(1-methyl-3-(trifluoromethyl)-1H-pyrazol-4-yl)-3,4-dihydroisoquinolin-1(2H)-one] | < 0.02 | 29
3 | COc1cc2cnnc(N3CCc4c(cc(Cn5ccnc5)cc4-c4cn(C)nc4C(F)(F)F)C3=O)c2cc1OC [Example 31, 7-((1H-Imidazol-1-yl)methyl)-2-(6,7-dimethoxyphthalazin-1-yl)-5-(1-methyl-3-(trifluoromethyl)-1H-pyrazol-4-yl)-3,4-dihydroisoquinolin-1(2H)-one] | < 0.02 | < 20
4 | CCc1cc2c(N3CCc4c(cc(Cn5ccnc5)cc4-c4cn(C)nc4C(F)(F)F)C3=O)ccnc2c(CC)n1 [Example 37, 7-((1H-Imidazol-1-yl)methyl)-2-(6,8-diethyl-1,7-naphthyridin-4-yl)-5-(1-methyl-3-(trifluoromethyl)-1H-pyrazol-4-yl)-3,4-dihydroisoquinolin-1(2H)-one] | < 0.02 | 96
5 | COc1cc2nc(C)nc(N3CCc4c(cc(Cn5ccnc5)cc4-c4ccc(F)cc4C)C3=O)c2cc1OC [Example 66, 7-((1H-Imidazol-1-yl)methyl)-2-(6,7-dimethoxy-2-methylquinazolin-4-yl)-5-(4-fluoro-2-methylphenyl)-3,4-dihydroisoquinolin-1(2H)-one] | 0.02 | 38
6 | CCc1cc2c(N3CCc4c(cc(Cn5ccnc5)cc4-c4cn(C)nc4C(F)(F)F)C3=O)ncnc2cc1OC [Example 43, 7-((1H-Imidazol-1-yl)methyl)-2-(6-ethyl-7-methoxyquinazolin-4-yl)-5-(1-methyl-3-(trifluoromethyl)-1H-pyrazol-4-yl)-3,4-dihydroisoquinolin-1(2H)-one] | < 0.02 | < 20
7 | CNc1cc2nc(C)nc(N3CCc4c(cc(Cn5ccnc5)cc4-c4cn(C)nc4C(F)(F)F)C3=O)c2cc1OC [Example 55, 7-((1H-Imidazol-1-yl)methyl)-2-(6-methoxy-2-methyl-7-(methylamino)quinazolin-4-yl)-5-(1-methyl-3-(trifluoromethyl)-1H-pyrazol-4-yl)-3,4-dihydroisoquinolin-1(2H)-one] | < 0.02 | 47
8 | CCc1cc2c(N3CCc4c(cc(Cn5ccnc5C)cc4-c4cn(C)nc4C(F)(F)F)C3=O)ccnc2c(OC)n1 [Example 10, 2-(6-Ethyl-8-methoxy-1,7-naphthyridin-4-yl)-7-((2-methyl-1H-imidazol-1-yl)methyl)-5-(1-methyl-3-(trifluoromethyl)-1H-pyrazol-4-yl)-3,4-dihydroisoquinolin-1(2H)-one] | < 0.02 | < 20
9 | COc1cnc2cc(C)cc(N3CCc4c(cc(Cn5ccnc5C)cc4-c4cn(C)nc4C(F)(F)F)C3=O)c2c1 [Example 2, 2-(3-Methoxy-7-methylquinolin-5-yl)-7-((2-methyl-1H-imidazol-1-yl)methyl)-5-(1-methyl-3-(trifluoromethyl)-1H-pyrazol-4-yl)-3,4-dihydroisoquinolin-1(2H)-one] | < 0.02 | < 20

Source: patent publication US20240262822A1, “WDR5 INHIBITORS AND MODULATORS” (Vanderbilt University, priority 2021, published 2024)
